{"source": "patent US20230210994A1", "about": "“CELL-PENETRATING CONJUGATE SYSTEMS” (Danmarks Tekniske Universitet, priority 2019, published 2023)", "key": {"CT-26 cells [1]": {"tested_on": "CT-26 cells", "assay": "Internalization of Paclitaxel (PTX) in CT-26 cells measured by flow cytometry", "format": "cell-based, mouse", "protocol": "There is a remarkable increment in the percentage of cells containing PTX when co-administered with the conjugate, especially after 24 hours incubation. (c) depicts the amount of PTX internalization expressed as mean fluorescence intensity (MFI)."}, "[2]": {"conditions": "cited from earlier work"}, "CT-26 cells [3]": {"tested_on": "CT-26 cells", "assay": "Ethidium-homodimer internalization in CT-26 cells, fluorescent confocal microscopy", "format": "cell-based, mouse", "conditions": "EtDi alone, without conjugate", "protocol": "CT-26 cells in culture were co-incubated with the conjugate system, 4-hydroxybutyl L-tryptophanate, (1 mg/ml) and Etidium-homodimer (2 μl/ml) for 1 hour and observed under fluorescent confocal microscope. Working ratio was set as 1:3 and two reaction sets comprising of higher (80 μl) loading and standard loading (40 μl ) were performed. Emission bandwidth was set as 490-550nm and 590-680 nm."}}, "data": [{"molecule": "CC(=O)O[C@H]1C(=O)[C@@]2(C)[C@H]([C@H](OC(=O)c3ccccc3)[C@]3(O)C[C@H](OC(=O)[C@H](O)[C@@H](NC(=O)c4ccccc4)c4ccccc4)C(C)=C1C3(C)C)[C@]1(OC(C)=O)CO[C@@H]1C[C@@H]2O", "note": "[PTX, Paclitaxel, reference compound]", "values": [{"measurement": "% cells uptake (1 h), CT-26 cells with PTX internalized", "setting": "CT-26 cells [1]; PTX 10 μM alone", "value": 2.3, "unit": "%"}, {"measurement": "% cells uptake (4 h), CT-26 cells with PTX internalized", "setting": "CT-26 cells [1]; PTX 10 μM alone", "value": 2.4, "unit": "%"}, {"measurement": "% cells with uptake (24 h), CT-26 cells with PTX internalized", "setting": "CT-26 cells [1]; PTX 10 μM alone", "value": 7.7, "unit": "%"}, {"measurement": "% cells uptake (1 h), CT-26 cells with PTX internalized", "setting": "CT-26 cells [1]; PTX 30 μM alone", "value": 2.2, "unit": "%"}, {"measurement": "% cells uptake (4 h), CT-26 cells with PTX internalized", "setting": "CT-26 cells [1]; PTX 30 μM alone", "value": 3.0, "unit": "%"}, {"measurement": "% cells with uptake (24 h), CT-26 cells with PTX internalized", "setting": "CT-26 cells [1]; PTX 30 μM alone", "value": 7.6, "unit": "%"}]}, {"molecule": "N[C@@H](Cc1c[nH]c2ccccc12)C(=O)O", "note": "[tryptophan]", "values": [{"measurement": "pKa of deprotonated carboxylic acid (—COO−)", "setting": "[2]", "value": 2.38}, {"measurement": "pKa of protonated amino group (—NH3+)", "setting": "[2]", "value": 9.39}]}, {"molecule": "Nc1ccc2c(c1)c(-c1ccccc1)[n+](CCCNCCNCCC[n+]1c(-c3ccccc3)c3cc(N)ccc3c3ccc(N)cc31)c1cc(N)ccc21", "note": "[EtDi, Ethidium-homodimer, reference compound]", "values": [{"measurement": "cell penetration of EtDi", "setting": "CT-26 cells [3]", "value": "cannot penetrate into the cell"}]}]}
